From the NIST ThermoML archive (doi:10.1021/acs.jced.7b00106)
Values joined by “and” are separate entries in the source; they are usually repeats but may differ in a detail not shown here. Identical values can stand only once.

Conditions: Fluid (supercritical or subcritical phases), Hot wire method

FC(F)(F)/C=C/Cl [(E)-1-chloro-3,3,3-trifluoroprop-1-ene]
Conditions | thermal conductivity
451.94 K, 2166 kPa | 0.02385 W/m/K
451.94 K, 5208 kPa | 0.04623 W/m/K
451.95 K, 2165 kPa | 0.02394 W/m/K
451.98 K, 987 kPa | 0.02333 W/m/K
451.98 K, 990 kPa | 0.0233 W/m/K
451.98 K, 3273 kPa | 0.02726 W/m/K
451.99 K, 3272 kPa | 0.02725 W/m/K
452.01 K, 1670 kPa | 0.02346 W/m/K
452.01 K, 1671 kPa | 0.0235 W/m/K
452.01 K, 2616 kPa | 0.02474 W/m/K
452.01 K, 2617 kPa | 0.02483 W/m/K
452.03 K, 5206 kPa | 0.0467 W/m/K
452.03 K, 5207 kPa | 0.04676 W/m/K
452.06 K, 2990 kPa | 0.026 W/m/K
452.06 K, 2991 kPa | 0.02595 W/m/K
452.09 K, 2165 kPa | 0.02407 W/m/K and 0.024 W/m/K
452.12 K, 5207 kPa | 0.0469 W/m/K
452.13 K, 5206 kPa | 0.04663 W/m/K
452.14 K, 7293 kPa | 0.04964 W/m/K
452.14 K, 7296 kPa | 0.04969 W/m/K
452.15 K, 987 kPa | 0.02338 W/m/K
452.16 K, 988 kPa | 0.02337 W/m/K
452.16 K, 2617 kPa | 0.02488 W/m/K
452.17 K, 1671 kPa | 0.02356 W/m/K
452.17 K, 2617 kPa | 0.02487 W/m/K
452.19 K, 5579 kPa | 0.04728 W/m/K
452.2 K, 2991 kPa | 0.02606 W/m/K
452.2 K, 5578 kPa | 0.0472 W/m/K
452.21 K, 2990 kPa | 0.026 W/m/K
452.23 K, 5207 kPa | 0.04713 W/m/K
452.24 K, 5208 kPa | 0.0472 W/m/K
452.25 K, 2165 kPa | 0.024 W/m/K
452.29 K, 5577 kPa | 0.04741 W/m/K
452.3 K, 5578 kPa | 0.04745 W/m/K
452.31 K, 7293 kPa | 0.04973 W/m/K
452.32 K, 7296 kPa | 0.0498 W/m/K
452.33 K, 988 kPa | 0.0233 W/m/K
452.33 K, 2615 kPa | 0.02494 W/m/K
452.33 K, 2618 kPa | 0.02493 W/m/K
452.33 K, 6080 kPa | 0.04801 W/m/K
452.33 K, 6081 kPa | 0.04806 W/m/K
452.34 K, 988 kPa | 0.02333 W/m/K
452.34 K, 1671 kPa | 0.02345 W/m/K
452.35 K, 1672 kPa | 0.02348 W/m/K
452.36 K, 22580 kPa | 0.06316 W/m/K
452.41 K, 5578 kPa | 0.04763 W/m/K
452.42 K, 2166 kPa | 0.02413 W/m/K
452.42 K, 2167 kPa | 0.02408 W/m/K
452.42 K, 5577 kPa | 0.04756 W/m/K
452.43 K, 12588 kPa | 0.05554 W/m/K
452.43 K, 12589 kPa | 0.05558 W/m/K
452.46 K, 18530 kPa | 0.06032 W/m/K
452.46 K, 18535 kPa | 0.06035 W/m/K
452.48 K, 7729 kPa | 0.0503 W/m/K
452.48 K, 7733 kPa | 0.05033 W/m/K
452.49 K, 10507 kPa | 0.05349 W/m/K
452.5 K, 7296 kPa | 0.04992 W/m/K
452.5 K, 7299 kPa | 0.04984 W/m/K
452.51 K, 6079 kPa | 0.04861 W/m/K
452.51 K, 6081 kPa | 0.04828 W/m/K
452.51 K, 15249 kPa | 0.05785 W/m/K
452.52 K, 10513 kPa | 0.05353 W/m/K
452.52 K, 15256 kPa | 0.05787 W/m/K
452.52 K, 22575 kPa | 0.06312 W/m/K
452.52 K, 22580 kPa | 0.06313 W/m/K
452.53 K, 989 kPa | 0.02342 W/m/K
452.53 K, 5576 kPa | 0.04776 W/m/K
452.53 K, 5577 kPa | 0.0478 W/m/K
452.53 K, 6779 kPa | 0.0491 W/m/K
452.53 K, 6780 kPa | 0.0491 W/m/K
452.54 K, 985 kPa | 0.02339 W/m/K
452.54 K, 1671 kPa | 0.02355 W/m/K
452.54 K, 1672 kPa | 0.02352 W/m/K
452.58 K, 8954 kPa | 0.0518 W/m/K
452.58 K, 8958 kPa | 0.05186 W/m/K
452.61 K, 12577 kPa | 0.05553 W/m/K
452.61 K, 12585 kPa | 0.05555 W/m/K
452.61 K, 18524 kPa | 0.06031 W/m/K
452.63 K, 18535 kPa | 0.06055 W/m/K
452.65 K, 5576 kPa | 0.04794 W/m/K
452.65 K, 5578 kPa | 0.04801 W/m/K
452.67 K, 7732 kPa | 0.0504 W/m/K
452.67 K, 7733 kPa | 0.05035 W/m/K
452.68 K, 10507 kPa | 0.05353 W/m/K
452.68 K, 10512 kPa | 0.05353 W/m/K
452.69 K, 6081 kPa | 0.04841 W/m/K
452.69 K, 7300 kPa | 0.05001 W/m/K
452.69 K, 7301 kPa | 0.04996 W/m/K
452.69 K, 15244 kPa | 0.05785 W/m/K
452.69 K, 22569 kPa | 0.06311 W/m/K
452.69 K, 22574 kPa | 0.06307 W/m/K
452.7 K, 6080 kPa | 0.04844 W/m/K
452.71 K, 6780 kPa | 0.04921 W/m/K
452.72 K, 6782 kPa | 0.04926 W/m/K
452.75 K, 990 kPa | 0.02344 W/m/K
452.76 K, 988 kPa | 0.02344 W/m/K
452.77 K, 8956 kPa | 0.05187 W/m/K and 0.05189 W/m/K
452.79 K, 18524 kPa | 0.0603 W/m/K
452.79 K, 18533 kPa | 0.06034 W/m/K
452.8 K, 12582 kPa | 0.05559 W/m/K
452.86 K, 7730 kPa | 0.05046 W/m/K
452.86 K, 7733 kPa | 0.05047 W/m/K
452.87 K, 10511 kPa | 0.05358 W/m/K
452.87 K, 22562 kPa | 0.06294 W/m/K
452.88 K, 10507 kPa | 0.05361 W/m/K
452.88 K, 15241 kPa | 0.05786 W/m/K
452.88 K, 15242 kPa | 0.05782 W/m/K
452.88 K, 22559 kPa | 0.06307 W/m/K
452.89 K, 6080 kPa | 0.04865 W/m/K
452.89 K, 6081 kPa | 0.04866 W/m/K
452.9 K, 7299 kPa | 0.0501 W/m/K
452.9 K, 7305 kPa | 0.05013 W/m/K
452.91 K, 6780 kPa | 0.04939 W/m/K
452.91 K, 6781 kPa | 0.04936 W/m/K
452.96 K, 8959 kPa | 0.05193 W/m/K
452.97 K, 8955 kPa | 0.0519 W/m/K
452.98 K, 18519 kPa | 0.06033 W/m/K
452.99 K, 12573 kPa | 0.05553 W/m/K
452.99 K, 12587 kPa | 0.05557 W/m/K
453.06 K, 7731 kPa | 0.05059 W/m/K
453.06 K, 22554 kPa | 0.06303 W/m/K
453.06 K, 22568 kPa | 0.06306 W/m/K
453.07 K, 7733 kPa | 0.05056 W/m/K
453.07 K, 10506 kPa | 0.05359 W/m/K
453.07 K, 15242 kPa | 0.05784 W/m/K
453.08 K, 10511 kPa | 0.05377 W/m/K
453.08 K, 15250 kPa | 0.05787 W/m/K
453.1 K, 6079 kPa | 0.04859 W/m/K
453.12 K, 6779 kPa | 0.0495 W/m/K
453.12 K, 6780 kPa | 0.04953 W/m/K
453.17 K, 18517 kPa | 0.06031 W/m/K
453.17 K, 18518 kPa | 0.06033 W/m/K
453.18 K, 8956 kPa | 0.05196 W/m/K
453.18 K, 8959 kPa | 0.05204 W/m/K
453.2 K, 12578 kPa | 0.05564 W/m/K
453.2 K, 12584 kPa | 0.05564 W/m/K
453.27 K, 7731 kPa | 0.05062 W/m/K
453.27 K, 10508 kPa | 0.05365 W/m/K
453.28 K, 7728 kPa | 0.05065 W/m/K
453.28 K, 10506 kPa | 0.05366 W/m/K
453.28 K, 15236 kPa | 0.05778 W/m/K
453.28 K, 15246 kPa | 0.05788 W/m/K
453.33 K, 6776 kPa | 0.0497 W/m/K
453.33 K, 6780 kPa | 0.04971 W/m/K
453.39 K, 8959 kPa | 0.05209 W/m/K
